Laboratory results reported in patent US8084016B2, “Measurement of biosynthesis and breakdown rates of biological molecules that are inaccessible or not easily accessible to direct sampling, non-invasively, by label incorporation into metabolic derivatives and catabolitic products” (The Regents of the University of California, priority 2002, dated 2011).

What was measured:
muscle myosin = experiment: Incorporation of ^2H from ^2H2O into urinary 3-methyl-histidine (muscle myosin biosynthesis); type: in vivo; settings: human subjects, intake of ^2H2O for 4-8 weeks
Text: An individual undergoing a physical training program or medical therapeutic regimen intended to increase muscle mass by increasing muscle myosin biosynthesis (e.g., an athlete; an elderly person receiving physical therapy after a stroke; a patient with cachexia related to cancer or AIDS who is receiving nutritional or anabolic agent therapy) is given a labeled precursor that is incorporated into the body's proteins during biosynthesis. […] […] […] Total urinary amino acids are isolated with an SPE column. The amino acids are derivatized for gas chromatographic/mass spectrometric analysis. […] The derivatized amino acids are injected into a gas chromatograph/mass spectrometer (e.g., HP 5973 instrument), using, e.g., a DB-225 column. The mass spectrum of the 3-methyl histidine peak is collected while monitoring mass isotopomers at m/z 267 and 268 (parent and M+1 ions, respectively). Relative abundances of the above mass isotopomers are quantified in samples and compared to unlabeled standards ([…] 267+268]=0.1200 in samples and 0.0960 in standards). The proportion of labeled:unlabeled molecules present in the sample is calculated for 3-methylhistidine using MIDA.

[1] = Body water ^2H2O enrichment during oral ^2H2O intake; type: in vivo, human
[2] = Toxicity observation during maintained body water enrichment with ^2H2O; type: in vivo; settings: levels maintained for weeks or months; >100 human subjects; rapid changes in body water enrichment prevented
Text: Relatively high body water enrichments of ^2H2O (e.g., 1-10% of the total body water is labeled) may be achieved using the techniques of the invention. This water enrichment is relatively constant and stable as these levels are maintained for weeks or months in humans and in experimental animals without any evidence of toxicity (FIGS. 3-5). This finding in a large number of human subjects (>100 people) is contrary to previous concerns about vestibular toxicities at high doses of ^2H2O. Applicants have discovered that as long as rapid changes in body water enrichment are prevented (e.g., by initial administration in small, divided doses), high body water enrichments of ^2H2O can be maintained with no toxicities. For example, the low expense of commercially available ^2H2O allows long-term maintenance of enrichments in the 1-5% range at relatively low expense (e.g., calculations reveal a lower cost for 2 months labeling at 2% ^2H2O enrichment, and thus 7-8% enrichment in the alanine precursor pool (FIGS. 6A-B), than for 12 hours labeling of ^2H-leucine at 10% free leucine enrichment, and thus 7-8% enrichment in leucine precursor pool for that period).

stability of ^2H2O enrichment in body water (precursor pool) ([1]; human subjects drank 50-100 ml ^2H2O daily for 10-12 weeks (FIG. 4))	^2H2O (%): body water enrichment ([1]; human subjects, intake of ^2H2O for 4-8 weeks) [%]	Compound	k: replacement rate constant of 3-methyl-histidine (muscle myosin) [day⁻¹]	toxicity at high body water enrichments of ^2H2O [2]
–	–	Cn1cncc1C[C@H](N)C(=O)O [3-methyl-histidine]	0.037	–
stable over a period of weeks	1.8	[2H]O[2H] [^2H2O]	–	no toxicities
